Source: patent publication US20160192643A1, “NEW ANTIFUNGAL COMPOSITION FOR TREATMENT OF SOIL” (CERADIS B.V., priority 2013, published 2016)

What was measured:
[1] = neutral aqueous systems; cited from earlier work
[2] = test system: Agaricus bisporus; assay: Polyelectrolyte formulation applied on mushroom growth substrate: total yield of mushrooms; type: in vivo; settings: natamycin 500 ppm where present
Protocol: Naturally contaminated Phase III compost inoculated with mushroom spawn of the edible mushroom species Agaricus bisporus prepared using well known methods was obtained from a local Dutch grower
Formulations described in Table 3 were generated as described in Example 1 for CitoCal.
Boxes with a size of 30 (1)×25 (b)×10 (h) cm were filled with the Phase III compost and incubated for 4 days at a temperature of 21° C. in the dark. After this incubation period, the white mushroom mycelium was visible on the surface of the compost. The compost was covered with 3 cm of casing prepared using well known methods after which 30 ml of the different formulations was sprayed onto the casing. Each formulation was examined in duplicate. The next day, 200 ml of water was added to each box after which the boxes were incubated for 7 days at 21° C. in the dark allowing the mycelium to grow to the surface of the casing. After this period the white mushroom mycelium was visible at the surface of the casing. The boxes were further incubated in the dark at a temperature of 18° C.
Dehydration of the casing surface was prevented by spraying sufficient and equal amounts of water (circa 10 ml) onto the casing in each box every few days using well known methods. […] During a period of 46 days mushrooms were harvested every day; the total yield was determined by measuring the weight of the mushrooms.

[3] = test system: most fungi; settings: cited from earlier work
[4] = test system: Pythium aphanidermatum; assay: Polyelectrolyte formulation against Pythium aphanidermatum in Chrysanthemum soil
Protocol: Soil was artificially infected with Pythium aphanidermatum spores using well known methods. Crates of 40×60 cm each were filled with infected soil. Transplants of Chrysanthemum were planted after the artificial infection. Each plot consisted of 2 crates with each 15 plants (30 plants per plot). The trial was conducted in four replicates. A single application was done just after transplant by spraying the AllyloCal polyelectrolyte complex over the crop at 1000 l/ha. Immediately after the treatment, the products were rinsed in the soil with 3 liter of water per m^2. The applied concentration in the spray suspension was 1000 ppm of natamycin. After 10 days the numbers of healthy, diseased and dead plants were counted.
At the end of the trial, after 44 days, the average plant height, the average plant weight and the rooting (in percentage of the bottom of the crates covered with roots) were measured.

[5] = 10 days after infection, n = 120, single spray at 1000 l/ha, 1000 ppm natamycin
[6] = compared with the untreated plants (n = 120), after 44 days
[7] = end of the trial, after 44 days

Question: What does the source list for `C[C@@H]1C/C=C/C=C/C=C/C=C/[C@H](O[C@@H]2O[C@H](C)[C@@H](O)[C@H](N)[C@@H]2O)C[C@@H]2O[C@](O)(C[C@@H](O)C[C@H]3O[C@@H]3/C=C/C(=O)O1)C[C@H](O)[C@H]2C(=O)O` [Natamycin, natamycin]?
Answer: solubility [1]: 30-40 ppm; Total yield (gram/2 boxes) ([2]; total mushroom weight after 46 days of incubation, 30 ml formulation sprayed onto casing, naturally contaminated Phase III compost): 359 gram/2 boxes; Yield increase (%) ([2]; versus Control, 46 days of incubation): −1.4%; Minimal Inhibitory Concentration (MIC) [3]: less than 10 ppm; Dead plants (%) [4, 5]: 6%; Diseased plants (%) [4, 5]: 34%; Healthy plants (%) [4, 5]: 60%; Percentage improvement of plant height (%) [4, 6]: 5.5%; Percentage improvement of plant rooting (%) [4, 6]: 2.3%; Percentage improvement of plant weight (%) [4, 6]: 3.9%; average plant height [4, 7]: 59.9 cm; average plant weight [4, 7]: 43.1 grams
